Results reported in US6468567B1, “Malt beverage having stabilized flavor and methods of production thereof” (Cerveceria Polar, C.A., priority 1997, dated 2002).

Experiment: Addition of 1,2-phenylenediamine to wort (chromatogram)
Settings: wort + 1,2-phenylenediamine versus wort; FIG. 5
Method: FIG. 5. […] A: wort. B: wort+1,2-phenylenediamine.
A fixed volume (2.2 ml) of 5% 1,2-phenylenediamine (OPD) in methanol was added to a bottle of beer (222 ml) that was then recapped and kept at 20° C. for 12 hours. After 12 hours of reaction, 25 ml of sample were extracted with chloroform (3×8 ml). The chloroform organic phase was removed by centrifugation at 3000 rpm for 10 min, collected, washed with 0.1 M HCl (3×8 ml) in order to remove the unreacted 1,2-phenylenediamine, and semi-dried with magnesium sulfate. The semi-dried organic phase, which contained the hydrophobic quinoxaline derivatives, was then rotavapped to dryness, and the residue resuspended in 250 μl of acetonitrile, and diluted 1/10 (50% solvent A and 50% solvent B) before chromatographic analysis. Hydrophobic quinoxalines were analyzed using Method I (see below). The aqueous phase, containing hydrophilic quinoxalines, was injected directly and analyzed using Method II (see below).
Chromatographic conditions were as follows: a Nova-Pak C18 (Waters) column 3.9×150 mm, 4 μm was used. The mobile phase was: solvent A—95% water (Milli-Q) and 5% acetonitrile; solvent B—90% acetonitrile and 10% water; flow rate 0.7 ml/min. Elution was monitored with a Waters 991 Photodiode Array Detector (200 nm-360 nm).

**Q.** For `Nc1ccccc1N` [1,2-phenylenediamine], which “change in the LC18 peak” value is on record?
**A.** specific reduction
